Molecular target: T1, USP5 (Homo sapiens, UniProt P45974)
T1 sequence (P45974 1-858): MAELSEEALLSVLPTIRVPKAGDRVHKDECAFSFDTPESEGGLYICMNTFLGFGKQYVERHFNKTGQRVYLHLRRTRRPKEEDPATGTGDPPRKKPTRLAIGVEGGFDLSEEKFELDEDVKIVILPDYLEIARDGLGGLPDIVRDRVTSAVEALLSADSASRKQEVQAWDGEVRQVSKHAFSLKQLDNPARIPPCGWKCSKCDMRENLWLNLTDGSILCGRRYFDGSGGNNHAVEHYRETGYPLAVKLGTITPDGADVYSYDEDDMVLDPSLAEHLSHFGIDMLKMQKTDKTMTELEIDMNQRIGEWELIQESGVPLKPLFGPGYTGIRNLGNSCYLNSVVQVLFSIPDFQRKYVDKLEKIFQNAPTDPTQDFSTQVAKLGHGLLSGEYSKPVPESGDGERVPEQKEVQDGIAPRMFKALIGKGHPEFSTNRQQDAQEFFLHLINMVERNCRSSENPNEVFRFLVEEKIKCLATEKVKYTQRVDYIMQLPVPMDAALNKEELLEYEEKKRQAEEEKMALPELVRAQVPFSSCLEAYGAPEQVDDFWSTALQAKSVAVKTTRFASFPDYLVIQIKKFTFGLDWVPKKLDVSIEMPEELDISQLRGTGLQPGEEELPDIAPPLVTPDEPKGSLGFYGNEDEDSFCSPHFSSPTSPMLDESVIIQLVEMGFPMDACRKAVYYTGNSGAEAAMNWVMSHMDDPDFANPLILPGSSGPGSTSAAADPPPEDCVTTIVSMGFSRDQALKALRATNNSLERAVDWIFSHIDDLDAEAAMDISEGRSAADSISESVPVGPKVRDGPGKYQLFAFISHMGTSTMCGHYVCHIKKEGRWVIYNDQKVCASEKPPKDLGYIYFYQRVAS
Assay: SPR binding to USP5
Settings: data not shown

## C=CC(=O)N1CC/C(=C\c2ccc(F)c([N+](=O)[O-])c2)C(=O)/C(=C/c2ccc(F)c([N+](=O)[O-])c2)C1 [VLX1570]
  saturable binding to USP5: No saturable binding

Reference: paper PMC4893612 (Scientific Reports, 2016)
